The subject of experiment [1] is human colonic mucosa sections (normal, dysplasia, adenocarcinoma). The experiment is described as follows: Peptide immunohistochemistry on frozen sections (Example 11). The conditions noted are these: for target-to-background (T/B) ratio KCCFPAQ peptide vs. control peptide: frozen sections; for fluorescence intensity on immunohistochemistry: mean±SEM. How it is done:
All specimens were obtained with approval from the University of Michigan Institutional Review Board (IRB). Freshly resected specimens of human colonic mucosa were frozen in OCT and sectioned with 10 μm thickness. The sections were then air dried, washed with PBS, and incubated with the FITC-labeled peptides at a concentration of 10 μM for 15 min at RT. The sections were washed 3× for 1 min in PBS and fixed with 4% paraformaldehyde for 10 min. After fixation, the sections were washed again and mounted with ProLong Gold reagent with DAPI (Invitrogen, Carlsbad, Calif.). The sections were imaged under a confocal microscope (Leica TCS SP5 Microsystems, Bannockburn, Ill.). Adjacent sections were sent for routine histology. The intensity for each image was calculated using Matlab (Mathworks, Natick, Mass.).

The test system of experiment [2] is human colon surgical specimens (normal mucosa, dysplastic adenomas, carcinoma). The experiment is described as follows: Binding of synthetic peptides to human surgical specimens of colon cancer (Example 9). As for the experimental part: Fresh frozen sections from human surgical specimens were cryosectioned with […] and used to localize peptide binding. The sectioned tissues were air dried and washed with PBS 1×. Sections were incubated with FITC labeled peptides (10 μM) for 15 min at RT. The sections were washed three times each for 1 min in PBS and fixed with 4% paraformaldehyde for 10 min. After fixing, the sections were washed again (1×) and mounted with ProLong® Gold reagent with DAPI (Invitrogen, Carlsbad, Calif.). The sections were imaged under a confocal microscope ([…]). All surgical specimens were obtained from the tissue procurement core of University of Michigan with approval from the Institutional Review Board (IRB).

The next experiment deals with colonic adenomas. The experiment is described as follows: In vivo imaging with non-scanning endoscope, FITC-labeled peptides. On the set-up: species or system CPC; Apc mice. The following applies: Non-scanning Endoscopy Results; FITC label; mean ± SD. From the text: Specific binding of the candidate peptides to primary dysplastic colonic epithelial cells were validated on flow cytometry ex vivo and with small animal endoscopy in vivo using FITC-labeled peptides using a non-scanning white light endoscope.

Another experiment concerns HT29 cells. The experiment is described as follows: Determination of binding constant (plate reader fluorescence). On the set-up: species or system human. How it is done: The binding affinity of FITC-Peptide 2 to HT29 cells (1×10^5) was determined using various concentrations of the peptide. The fluorescence intensity of the peptide bound to the HT29 cells was measured at saturation. Then, the FITC-labeled peptide was serially diluted in PBS at concentrations that varied from 0 to 70 μmol/L and incubated with 1×10^5 HT29 cells at 4° C. for 1 hr. After washing 3 times with cold PBS/0.2% Tween 20 solution, the unbound peptide was rinsed off. The cells were resuspended in 200 μL PBS and transferred to a 96 well plate. The fluorescence intensity I was measured at 525 nm using 485 nm as the excitation wavelength on a multi-well plate reader (CytoFluor Series 4000; Applied Biosystems Inc, Foster City, Calif.). Binding of the peptide to the cells was calculated using the peptide emission intensity with the same concentration without the cells present. The peptide equilibrium dissociation constant Kd=1/Ka was calculated by performing a least squares fit of the data to the non-linear equation I=(I0+ImaxKa[X])/(I0+Ka[X]). I0 and Imax are the initial and maximum fluorescence intensities, corresponding to no peptide and at saturation, respectively, and [X] represents the concentration of the bound peptide. Origin 6.1 data analysis software (Origin Lab Corp, Northampton, Mass.) was used to fit the equation for non-linear least square fitting. […]

By Kd is commonly meant the constant that tells how readily two partners part at equilibrium. A low value points to tighter binding. In the case of “KCCFPAQ-FITC [FITC-Peptide 2, KCCFPAQ with FITC at the C-terminus on the side chain of lysine residue via GGGSK linker]”, in experiment [1], the “binding to adenocarcinoma compared to normal mucosa” value is listed as 3.1 times and the “binding to adenocarcinoma relative to dysplasia” value amounted to 1.5 fold. Further, in experiment [1] (10 μM, 15 min, RT), the “binding to normal colonic mucosa” value is listed as “no binding”; the “staining of dysplasia and adenocarcinoma” value is “consistently stains”. Besides, in experiment [1] (adenocarcinoma), the “target-to-background (T/B) ratio KCCFPAQ peptide vs. control peptide” value was found to be 3.6 and the “fluorescence intensity on immunohistochemistry” value (shortened to “fluorescence intensity”) is listed as 31.5±6.0 AU. Further, in experiment [1] (dysplasia), the “target-to-background (T/B) ratio KCCFPAQ peptide vs. control peptide” value is reported as 3.1 and the “fluorescence intensity” value is reported as 21.1±3.8 AU. Also, in experiment [1] (normal mucosa), the “target-to-background (T/B) ratio KCCFPAQ peptide vs. control peptide” value came out at 2.0 and the “fluorescence intensity” value worked out at 10.1±3.6 AU. Further, in experiment [2], the “T/B carcinoma compared to normal mucosa” value is on record as 7 and the “binding to carcinoma relative to dysplastic adenomas” value came to 1.5 fold. In experiment [2] (10 μM, 15 min, RT), the “binding to normal mucosa” value is listed as “no binding was observed”; the “staining of pre-malignant lesions (dysplastic adenomas) and malignant lesions (carcinoma)” value is on record as “stained consistently”. The “T/B ratio FITC-Peptide 2 vs. FITC-Control peptide 2” value in experiment [2] (adenoma) turned out to be 3. Moreover, the “T/B ratio FITC-Peptide 2 vs. FITC-Control peptide 2” value in experiment [2] (carcinoma) is 6. In addition, the “T/B ratio FITC-Peptide 2 vs. FITC-Control peptide 2” value in experiment [2] (normal mucosa) came out at 1. In the experiment on colonic adenomas, the “Average T/B” value worked out at 1.69 ± 0.70. In the experiment with HT29 cells (FITC-labeled peptide 0 to 70 μM, 4° C., 1 hr, R^2=0.988), this substance returned a Kd of 65 nM. Also, in the experiment with HT29 cells (summary of results), the Kd was 65 nM.
